The assay deals with T1, cloned KCNQ2/3 potassium channels (encoded by the human KCNQ2/3 gene and expressed in HEK293 cells) (Homo sapiens, UniProt O43525+O43526).
T1 construct: expressed in transfected cells; host or cells: HEK293 cells
Description: Assessment of KCNQ2/3 channel activation activity, QPatch HT automatic parallel patch clamp. It is filed as cell-based. As to conditions: for Mean % KCNQ2/3 Activation: 5 min exposure, room temperature, HEK293 cells; for Individual Data Points (% Activation): single cell values; for KCNQ2/3 activation activity compared with ezogabine: single concentration (0.1 μM). How it is done: The in vitro effects of ezogabine and Compound 1A on cloned KCNQ2/3 potassium channels (encoded by the human KCNQ2/3 gene and expressed in HEK293 cells) were evaluated at room temperature using the QPatch HT® (Sophion Bioscience A/S, Denmark), an automatic parallel patch clamp system. Each test article was evaluated at 0.01, 0.1, 1, 10 and 100 μM with each concentration tested in at least two cells (n≧2). The duration of exposure to each test article concentration was 5 minutes.
The baseline for each recording was established using a 5-10 minute vehicle application (HBPS+0.3% DMSO). A single test article concentration was applied for a period of 5 minutes after the vehicle, followed by a 3 minute application of 30 μM flupirtine. Each recording ended with a supramaximal dose of 30 μM linopirdine. The % activation was calculated using the following equation by using leak subtracted responses: […]

Molecules are shown by their SMILES. “And” between values parts separate entries of the source, which are not always exact repeats. Identical values can stand only once.

On to `CCOC(=O)Nc1ccc(NCc2ccc(F)cc2)c(F)c1N` [Compound 1A, ethyl(2-amino-3-fluoro-4-((4-fluorobenzyl)amino)phenyl)carbamate], for which the “Mean % KCNQ2/3 Activation” value runs as follows: (0.01 μM) 31.4%; (0.1 μM) 62.9%; (1 μM) 125.5%; (10 μM) 119.9%; (100 μM) 61.9%. In addition, the “Individual Data Points (% Activation)” value is 35.9% and 26.9% (0.01 μM, listed as Compound lA); 98.9% and 43.3% and 46.6% (0.1 μM, listed as Compound lA); 123.5% and 127.6% (1 μM, listed as Compound lA); 119.7% and 120.1% (10 μM, listed as Compound lA); 56.6% and 67.3% (100 μM, listed as Compound lA).
`CCOC(=O)Nc1c(N)cc(NCc2ccc(F)cc2)cc1F` [Compound 2A, ethyl(2-amino-6-fluoro-4-((4-fluorobenzyl)amino)phenyl)carbamate]: the “KCNQ2/3 activation activity compared with ezogabine” value is recorded as “equivalent in activity to ezogabine”.
Consider `CCOC(=O)Nc1cc(F)c(NCc2ccc(F)cc2)cc1N` [Compound 3A, ethyl(2-amino-5-fluoro-4-((4-fluorobenzyl)amino)phenyl)carbamate], for which the “KCNQ2/3 activation activity compared with ezogabine” value is on record as “equivalent in activity to ezogabine”.
`CCOC(=O)Nc1cc(F)c(NCc2ccc(F)cc2)c(F)c1N` [Compound 4A, ethyl(2-amino-3,5-difluoro-4-((4-fluorobenzyl)amino)phenyl)carbamate]: the “KCNQ2/3 activation activity compared with ezogabine” value is “equivalent in activity to ezogabine”.
`CCOC(=O)Nc1ccc(NCc2ccc(F)cc2)cc1N` [ezogabine, ethyl N-[2-amino-4-[(4-fluorophenyl)methylamino]phenyl]carbamate, reference compound]: the “Mean % KCNQ2/3 Activation” value is 6.6% (0.01 μM); 40.6% (0.1 μM); 94.4% (1 μM); 132.0% (10 μM); 104.1% (100 μM). In addition, the “Individual Data Points (% Activation)” value is 2.1% and 11.1% (0.01 μM); 49.1% and 32.2% (0.1 μM); 93.6% and 95.2% (1 μM); 123.7% and 140.4% (10 μM); 93.8% and 101.9% and 116.5% (100 μM).

These data come from patent US9556114B2, “Fluorinated 2-amino-4-(benzylamino)phenylcarbamate derivatives” (SciFluor Life Sciences, Inc., priority 2012, dated 2017).
